From patent publication US20240424111A1, “Degrader Compounds and Uses Thereof” (CALICO LIFE SCIENCES LLC, priority 2021, published 2024)

Experiments:
PTPN2 [1] = molecular target: T1, PTPN2 (Homo sapiens, UniProt P17706); test: HiBiT PTPN2 degradation in 293T.109 (HiBiT-PTPN2) cells, 24 hours; format: cell-based; details: 293T.109 cells
T1 construct: expressed in transfected cells; host or cells: 293T.109 (HiBiT-PTPN2), derived from 293T WT (ATCC)
T1 sequence (P17706 1-415): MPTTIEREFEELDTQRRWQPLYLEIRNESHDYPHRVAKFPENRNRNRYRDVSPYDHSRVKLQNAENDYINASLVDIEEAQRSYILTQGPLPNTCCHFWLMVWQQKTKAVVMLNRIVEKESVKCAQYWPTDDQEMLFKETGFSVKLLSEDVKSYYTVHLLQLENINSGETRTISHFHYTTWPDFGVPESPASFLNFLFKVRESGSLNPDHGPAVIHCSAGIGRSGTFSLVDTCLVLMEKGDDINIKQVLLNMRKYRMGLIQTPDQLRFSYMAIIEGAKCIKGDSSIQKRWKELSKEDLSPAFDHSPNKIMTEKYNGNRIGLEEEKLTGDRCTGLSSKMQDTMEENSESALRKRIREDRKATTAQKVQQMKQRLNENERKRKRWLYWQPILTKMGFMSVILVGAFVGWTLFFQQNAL
In short: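 293T cells stably expressing N-terminal HiBiT-tagged PTPN2 were treated for 24 h at 37 °C with compound in an 11-point half-log series from 10 μM top concentration, in duplicate. Remaining HiBiT-PTPN2 was measured by lytic luminescence, with untreated cells as the negative control and wells without lytic reagent as the positive control.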

PTPN2 [2] = molecular target: T2, PTPN2 (Mus musculus, UniProt Q06180); test: HiBiT PTPN2 degradation in B16F10.4 cells, 24 hours; format: cell-based
T2 construct: HiBiT; host or cells: B16F10.4
T2 sequence (Q06180 1-406): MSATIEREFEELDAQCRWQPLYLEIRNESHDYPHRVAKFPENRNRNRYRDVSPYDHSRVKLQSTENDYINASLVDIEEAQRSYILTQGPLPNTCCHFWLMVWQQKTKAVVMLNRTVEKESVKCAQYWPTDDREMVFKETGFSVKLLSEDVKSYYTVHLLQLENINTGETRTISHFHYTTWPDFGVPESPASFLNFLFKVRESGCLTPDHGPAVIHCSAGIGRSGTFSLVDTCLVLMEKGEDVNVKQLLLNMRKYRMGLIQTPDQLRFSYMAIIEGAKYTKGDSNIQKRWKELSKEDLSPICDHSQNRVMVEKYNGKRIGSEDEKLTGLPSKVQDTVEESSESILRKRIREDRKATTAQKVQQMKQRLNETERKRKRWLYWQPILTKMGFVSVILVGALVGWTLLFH
In short: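 PTPN2 degradation was measured via luminescence from the Nano-Glo® HiBiT Lytic Assay kit. Compounds were dispensed into 384-well plates at an 11-point half-log titration in duplicate, starting at 10 μM. Cells were added at 5000 per well and held at 37° C. with 5% CO2 for 24 hours. Untreated cells were the negative control and cells without lytic reagent the positive control. Lytic reagents were then added and luminescence read on an EnVision™ Multilabel Reader.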

Row | SMILES | DC50 (PTPN2 [1]) [nM] | DC50 (PTPN2 [2]) [nM]
1 | Cc1nn(C2CCC(=O)NC2=O)c2ccc(N3CCC(CC(=O)Nc4ccc5c(F)c(N6CC(=O)NS6(=O)=O)c(O)cc5c4)CC3)cc12 (centres unmarked) [Degrader 101] | ≥ 500 | ≥ 500
2 | C[C@@H](C(=O)Nc1ccc2c(F)c(N3CC(=O)NS3(=O)=O)c(O)cc2c1)C1CCN(c2ccc3c(c2)n(C)c(=O)n3C2CCC(=O)NC2=O)CC1 (some centres unmarked) [Degrader 106] | 150 to 500 | 150 to 500
3 | Cn1c(=O)n(C2CCC(=O)NC2=O)c2ccc(N3[C@@H]4CC[C@H]3C[C@@H](CC(=O)Nc3ccc5c(F)c(N6CC(=O)NS6(=O)=O)c(O)cc5c3)C4)cc21 (some centres unmarked) [Degrader 109] | 150 to 500 | 150 to 500
4 | Cn1c(=O)n(C2CCC(=O)NC2=O)c2ccc(N3CCC(O)(CC(=O)N4CC[C@@H](c5ccc6cc(O)c(N7CC(=O)NS7(=O)=O)c(F)c6c5)C4)CC3)cc21 (some centres unmarked) [Degrader 114] | ≥ 500 | ≥ 500
5 | Cn1c(=O)n(C2CCC(=O)NC2=O)c2ccc(N3CCC(O)(CC(=O)N4CC[C@H](c5ccc6cc(O)c(N7CC(=O)NS7(=O)=O)c(F)c6c5)C4)CC3)cc21 (some centres unmarked) [Degrader 115] | 150 to 500 | 150 to 500
6 | Cn1c(=O)n(C2CCC(=O)NC2=O)c2ccc(C3CCN(CC(=O)N4CC[C@H](Oc5ccc6cc(O)c(N7CC(=O)NS7(=O)=O)c(F)c6c5)C4)CC3(F)F)cc21 (some centres unmarked) [Degrader 116] | ≥ 500 | ≥ 500
7 | Cn1c(=O)n(C2CCC(=O)NC2=O)c2ccc(C3CCN(CC(=O)N4CC[C@@H](Oc5ccc6cc(O)c(N7CC(=O)NS7(=O)=O)c(F)c6c5)C4)CC3(F)F)cc21 (some centres unmarked) [Degrader 117] | ≥ 500 | ≥ 500
8 | Cn1c(=O)n(C2CCC(=O)NC2=O)c2ccc(N3CCC(C(C)(C)C(=O)Nc4ccc5c(F)c(N6CC(=O)NS6(=O)=O)c(O)cc5c4)CC3)cc21 (centres unmarked) [Degrader 118] | ≥ 500 | 150 to 500
9 | Cn1c(=O)n(C2CCC(=O)NC2=O)c2ccc(N3CCc4cc(CC(=O)Nc5ccc6c(F)c(N7CC(=O)NS7(=O)=O)c(O)cc6c5)ccc43)cc21 (centres unmarked) [Degrader 119] | 150 to 500 | 50 to 150
10 | Cn1c(=O)n(C2CCC(=O)NC2=O)c2ccc(-n3ccc4cc(CC(=O)Nc5ccc6c(F)c(N7CC(=O)NS7(=O)=O)c(O)cc6c5)ccc43)cc21 (centres unmarked) [Degrader 120] | 150 to 500 | 50 to 150
11 | Cn1c(=O)n(C2CCC(=O)NC2=O)c2cnc(-c3ccc(CC(=O)Nc4ccc5c(F)c(N6CC(=O)NS6(=O)=O)c(O)cc5c4)cc3)cc21 (centres unmarked) [Degrader 122] | ≥ 500 | 150 to 500
12 | Cn1cc(N2CCC(=O)NC2=O)c2cc(F)c(-c3ccc(CC(=O)Nc4ccc5c(F)c(N6CC(=O)NS6(=O)=O)c(O)cc5c4)cc3)cc21 [Degrader 125] | 150 to 500 | 150 to 500
13 | O=C1CCC(c2ccc(C3CCN(CC(=O)Nc4ccc5c(F)c(N6CC(=O)NS6(=O)=O)c(O)cc5c4)CC3)cc2)C(=O)N1 (centres unmarked) [Degrader 128] | 150 to 500 | ≥ 500
14 | CCn1c(=O)n(C2CCC(=O)NC2=O)c2ccc([C@@H]3CCN(CC(=O)Nc4ccc5c(F)c(N6CC(=O)NS6(=O)=O)c(O)cc5c4)C[C@H]3F)cc21 (some centres unmarked) [Degrader 131] | 150 to 500 | ≥ 500
15 | Cn1c(=O)n(C2CCC(=O)NC2=O)c2cccc(N3CCC[C@@H](OCC(=O)Nc4ccc5c(F)c(N6CC(=O)NS6(=O)=O)c(O)cc5c4)C3)c21 (some centres unmarked) [Degrader 135] | ≥ 500 | ≥ 500

Next, values leading:

Row | DC50 (PTPN2 [1]) [nM] | DC50 (PTPN2 [2]) [nM] | SMILES
16 | 50 to 150 | 150 to 500 | Cn1c(=O)n(C2CCC(=O)NC2=O)c2ccc(N3CC4(CC(OCC(=O)Nc5ccc6c(F)c(N7CC(=O)NS7(=O)=O)c(O)cc6c5)C4)C3)cc21 (centres unmarked) [Degrader 96]
17 | 50 to 150 | 150 to 500 | Cn1c(=O)n(C2CCC(=O)NC2=O)c2ccc(N3CCCC(CC(=O)Nc4ccc5c(F)c(N6CC(=O)NS6(=O)=O)c(O)cc5c4)CC3)cc21 (centres unmarked) [Degrader 97]
18 | < 50 | 50 to 150 | COC1(CC(=O)Nc2ccc3c(F)c(N4CC(=O)NS4(=O)=O)c(O)cc3c2)CCN(c2ccc3c(c2)n(C)c(=O)n3C2CCC(=O)NC2=O)CC1 (centres unmarked) [Degrader 99]
19 | < 50 | 150 to 500 | Cc1nn(C2CCC(=O)NC2=O)c2ccc(C3CCN(CC(=O)Nc4ccc5c(F)c(N6CC(=O)NS6(=O)=O)c(O)cc5c4)CC3)cc12 (centres unmarked) [Degrader 100]
20 | 50 to 150 | 50 to 150 | Cn1c(=O)n(C2CCC(=O)NC2=O)c2ccc(C3CCN(C4CC(C(=O)Nc5ccc6cc(N7CC(=O)NS7(=O)=O)ccc6c5)C4)CC3(F)F)cc21 (centres unmarked) [Degrader 102]
21 | < 50 | ≥ 500 | C[C@H](C(=O)Nc1ccc2c(F)c(N3CC(=O)NS3(=O)=O)c(O)cc2c1)N1CCC(c2ccc3c(c2)n(C)c(=O)n3C2CCC(=O)NC2=O)CC1 (some centres unmarked) [Degrader 103]
22 | 150 to 500 | 150 to 500 | C[C@H](C(=O)Nc1ccc2c(F)c(N3CC(=O)NS3(=O)=O)c(O)cc2c1)C1CCN(c2ccc3c(c2)n(C)c(=O)n3C2CCC(=O)NC2=O)CC1 (some centres unmarked) [Degrader 105]
23 | 50 to 150 | 50 to 150 | Cn1c(=O)n(C2CCC(=O)NC2=O)c2ccc(Nc3ccn(CC(=O)Nc4ccc5c(F)c(N6CC(=O)NS6(=O)=O)c(O)cc5c4)n3)cc21 (centres unmarked) [Degrader 107]
24 | 50 to 150 | 50 to 150 | Cn1c(=O)n(C2CCC(=O)NC2=O)c2ccc(-c3ccc(NCC4CC4C(=O)Nc4ccc5c(F)c(N6CC(=O)NS6(=O)=O)c(O)cc5c4)cc3)cc21 (centres unmarked) [Degrader 108]
25 | 50 to 150 | 150 to 500 | Cn1c(=O)n(C2CCC(=O)NC2=O)c2ccc(N3[C@@H]4CC[C@H]3C[C@H](CC(=O)Nc3ccc5c(F)c(N6CC(=O)NS6(=O)=O)c(O)cc5c3)C4)cc21 (some centres unmarked) [Degrader 110]
26 | < 50 | 50 to 150 | Cn1c(=O)n(C2CCC(=O)NC2=O)c2ccc([C@@H]3CCN(CC(=O)Nc4ccc5c(F)c(N6CC(=O)NS6(=O)=O)c(O)cc5c4)C[C@H]3O)cc21 (some centres unmarked) [Degrader 111]
27 | < 50 | 50 to 150 | Cn1c(=O)n(C2CCC(=O)NC2=O)c2ccc([C@H]3CCN(CC(=O)Nc4ccc5c(F)c(N6CC(=O)NS6(=O)=O)c(O)cc5c4)C[C@@H]3O)cc21 (some centres unmarked) [Degrader 112]
28 | 50 to 150 | 150 to 500 | Cn1c(=O)n(C2CCC(=O)NC2=O)c2ccc(C3CCN(CC(=O)Nc4ccc5c(F)c(N6CC(=O)NS6(=O)=O)c(O)cc5c4)CC3=O)cc21 (centres unmarked) [Degrader 113]
29 | < 50 | 50 to 150 | C[C@H]1CC(c2ccc3c(c2)n(C)c(=O)n3C2CCC(=O)NC2=O)CCN1CC(=O)Nc1ccc2c(F)c(N3CC(=O)NS3(=O)=O)c(O)cc2c1 (some centres unmarked) [Degrader 121]
30 | < 50 | 150 to 500 | Cn1c(=O)n(C2CCC(=O)NC2=O)c2ccc([C@@H]3CCN(CC(=O)Nc4ccc5c(F)c(N6CC(=O)NS6(=O)=O)c(O)cc5c4)C3)cc21 (some centres unmarked) [Degrader 124]
31 | 50 to 150 | 50 to 150 | C[C@H]1CN(c2ccc3c(c2)n(C)c(=O)n3C2CCC(=O)NC2=O)CC[C@H]1CC(=O)Nc1ccc2c(F)c(N3CC(=O)NS3(=O)=O)c(O)cc2c1 (some centres unmarked) [Degrader 126]
32 | 50 to 150 | 50 to 150 | C[C@@H]1CN(c2ccc3c(c2)n(C)c(=O)n3C2CCC(=O)NC2=O)CC[C@@H]1CC(=O)Nc1ccc2c(F)c(N3CC(=O)NS3(=O)=O)c(O)cc2c1 (some centres unmarked) [Degrader 127]
33 | 50 to 150 | 150 to 500 | Cn1nc(N2CCC(=O)NC2=O)c2cc(F)c(N3CCC(CC(=O)Nc4ccc5c(F)c(N6CC(=O)NS6(=O)=O)c(O)cc5c4)CC3)cc21 [Degrader 129]
34 | 50 to 150 | 50 to 150 | C[C@@H]1CN(c2ccc3c(c2)n(C)c(=O)n3C2CCC(=O)NC2=O)CC[C@H]1CC(=O)Nc1ccc2c(F)c(N3CC(=O)NS3(=O)=O)c(O)cc2c1 (some centres unmarked) [Degrader 132]
35 | 50 to 150 | 50 to 150 | C[C@H]1CN(c2ccc3c(c2)n(C)c(=O)n3C2CCC(=O)NC2=O)CC[C@@H]1CC(=O)Nc1ccc2c(F)c(N3CC(=O)NS3(=O)=O)c(O)cc2c1 (some centres unmarked) [Degrader 133]
36 | 50 to 150 | 150 to 500 | Cn1nc(N2CCC(=O)NC2=O)c2cc(F)c(N3CCC(CC(=O)Nc4ccc5c(F)c(N6CC(=O)NS6(=O)=O)c(O)cc5c4)CC3)cc21 [Degrader 134]
37 | < 50 | 50 to 150 | Cn1c(=O)n(C2CCC(=O)NC2=O)c2ccc(Cc3ccc(CC(=O)Nc4ccc5c(F)c(N6CC(=O)NS6(=O)=O)c(O)cc5c4)cc3)cc21 (centres unmarked) [Degrader 136]
